Laboratory results from publication PMC4522657, “Identification of a DYRK1A Inhibitor that Induces Degradation of the Target Kinase using Co-chaperone CDC37 fused with Luciferase nanoKAZ” (Scientific Reports, 2015).

Tests used:
PDHK4 = molecular target: T1, PDHK4 (Homo sapiens, UniProt Q16654); test: Kinase panel, CaNDY 1 µM; type: biochemical; conditions: CaNDY 1 µM relative to DMSO
T1 construct: purchased Carna Biosciences

[1] = molecular target: T2, interaction of CDC37-nanoKAZ with 3xFLAG-DYRK1A (Y319F/Y321F) (Homo sapiens, UniProt Q13627, Y319F/Y321F); test: CDC37-nanoKAZ binding assay (ELISA of the CDC37-nanoKAZ interaction) in 293T cells; type: cell-based
T2 construct: F2A peptide linking to EGFP (2A skipping releases EGFP; a 2A remnant may stay on DYRK1A) (C); expressed in transfected cells; host or cells: 293T cells stably expressing CDC37-nanoKAZ, transiently transfected with pcDNA5/FRT/TO 3xFLAG-DYRK1A (Y319F/Y321F)
Protocol: The cells were then treated with the indicated concentrations of small molecules for one hour. Cell lysates were added to FLAG antibody-coated 96-well plates and luminescence intensities were measured. The amount of bound 3xFLAG-DYRK1A was measured using a HRP-conjugated antibody against FLAG. The relative Imax for CDC37-nanoKAZ was normalized using the amount of bound protein.
Stable cell lines transfected with expression vectors for 3xFLAG-tagged DYRK family kinases and its mutants were lysed in ice-cold HENG buffer (50 mM HEPES-KOH, pH 7.9, 150 mM NaCl, 20 mM Na2MoO4, 2 mM EDTA, 5% Glycerol, 0.5% TritonX-100) containing protease inhibitor cocktail (Nacalai Tesque) on ice. […] The wells were wash three times with ice-cold HENG buffer and then a luminescence assay was performed.
The luminescence activity of the cell lysates was determined using a Centro LB 960 Microplate Luminometer (Berthold Technologies, Bad Wildbad, Germany). A reaction mixture containing bis-coelenterazine (final concentration of 0.1–1 μg/100 μL) in PBS containing 0.02% Tween20 and 20 mM EDTA was injected. The luminescence intensity was recorded at 0.1 s intervals for 10 s or 10 min. The maximum luminescence intensity (Imax), represented in relative luminescence units (rlu), was used in the study.
After measuring the luminescence intensities, the wells were washed three times with HENG buffer, and incubated with HRP-conjugated anti-FLAG antibody diluted with PBS containing […] and 2% fetal bovine serum at 37 °C for one hour. After extensive washing, […] Super Sensitive One Component HRP Microwell Substrate (SurModics, Eden Prairie, MN, USA) was added into the well and the reaction was stopped with sulfuric acid. Absorbance at 450 nm was measured with ARVO X5 (PerkinElmer). The relative amount of protein bound on the well was estimated from the absorbance.
In Supporting Figure S1a, the values of Imax are shown in kinetics plots. In Figs 2c,e, 3c, S1d, S3, and S4, the relative luminescence intensities are shown as the fold-change in the Imax values of the samples relative to Imax with EGFP. In Figs 4, 5a,c and 6c, the relative luminescence intensities were normalized to the amount of the bound 3xFLAG-DYRK1A mutant and calculated as the fold-change relative to the value at 0 μM of the compounds.
Small molecules in our original synthetic chemical library, including unpublished small molecule inhibitors of DYRK1A and its structural derivatives (data not shown), were added to the 96-well plates containing the transfected cells at a final concentration of 4 μM. The cells were then processed as described above.

TIE2 = molecular target: T3, TIE2 (Homo sapiens, UniProt Q02763); test: Kinase panel, CaNDY 1 µM; type: biochemical; conditions: CaNDY 1 µM relative to DMSO
T3 construct: purchased Carna Biosciences

FER = molecular target: T4, FER (Homo sapiens, UniProt P16591); test: Kinase panel, CaNDY 1 µM; type: biochemical; conditions: CaNDY 1 µM relative to DMSO
T4 construct: purchased Carna Biosciences
T4 sequence (P16591 whole entry): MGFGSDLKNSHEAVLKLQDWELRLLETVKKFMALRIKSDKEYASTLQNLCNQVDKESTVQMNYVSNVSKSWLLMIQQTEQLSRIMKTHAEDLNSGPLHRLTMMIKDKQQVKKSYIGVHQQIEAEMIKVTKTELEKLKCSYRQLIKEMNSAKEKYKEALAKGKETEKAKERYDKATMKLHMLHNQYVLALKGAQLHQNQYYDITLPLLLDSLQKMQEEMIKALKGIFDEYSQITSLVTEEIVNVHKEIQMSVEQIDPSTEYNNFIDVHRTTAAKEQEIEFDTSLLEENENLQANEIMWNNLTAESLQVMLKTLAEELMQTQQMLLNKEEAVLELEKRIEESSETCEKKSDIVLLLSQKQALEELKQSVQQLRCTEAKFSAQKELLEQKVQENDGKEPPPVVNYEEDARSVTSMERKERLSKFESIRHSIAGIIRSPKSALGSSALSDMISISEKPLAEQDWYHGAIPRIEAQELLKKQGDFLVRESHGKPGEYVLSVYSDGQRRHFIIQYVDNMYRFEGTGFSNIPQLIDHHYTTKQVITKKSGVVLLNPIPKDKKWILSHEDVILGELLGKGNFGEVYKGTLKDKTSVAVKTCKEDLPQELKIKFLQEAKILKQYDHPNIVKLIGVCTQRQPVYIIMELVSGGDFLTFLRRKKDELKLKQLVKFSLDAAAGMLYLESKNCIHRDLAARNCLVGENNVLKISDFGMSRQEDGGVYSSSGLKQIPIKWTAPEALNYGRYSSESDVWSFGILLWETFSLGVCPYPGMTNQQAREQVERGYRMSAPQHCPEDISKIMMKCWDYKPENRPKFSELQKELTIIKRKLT

MAP3K5_Cascade = molecular target: T5, MAP3K5_Cascade (Homo sapiens, UniProt Q99683); test: Kinase panel, CaNDY 1 µM; type: biochemical; conditions: CaNDY 1 µM relative to DMSO
T5 construct: purchased Carna Biosciences

RSK1 = molecular target: T6, RSK1 (Homo sapiens, UniProt Q15418); test: Kinase panel, CaNDY 1 µM; type: biochemical; conditions: CaNDY 1 µM relative to DMSO
T6 construct: purchased Carna Biosciences
T6 sequence (Q15418 whole entry): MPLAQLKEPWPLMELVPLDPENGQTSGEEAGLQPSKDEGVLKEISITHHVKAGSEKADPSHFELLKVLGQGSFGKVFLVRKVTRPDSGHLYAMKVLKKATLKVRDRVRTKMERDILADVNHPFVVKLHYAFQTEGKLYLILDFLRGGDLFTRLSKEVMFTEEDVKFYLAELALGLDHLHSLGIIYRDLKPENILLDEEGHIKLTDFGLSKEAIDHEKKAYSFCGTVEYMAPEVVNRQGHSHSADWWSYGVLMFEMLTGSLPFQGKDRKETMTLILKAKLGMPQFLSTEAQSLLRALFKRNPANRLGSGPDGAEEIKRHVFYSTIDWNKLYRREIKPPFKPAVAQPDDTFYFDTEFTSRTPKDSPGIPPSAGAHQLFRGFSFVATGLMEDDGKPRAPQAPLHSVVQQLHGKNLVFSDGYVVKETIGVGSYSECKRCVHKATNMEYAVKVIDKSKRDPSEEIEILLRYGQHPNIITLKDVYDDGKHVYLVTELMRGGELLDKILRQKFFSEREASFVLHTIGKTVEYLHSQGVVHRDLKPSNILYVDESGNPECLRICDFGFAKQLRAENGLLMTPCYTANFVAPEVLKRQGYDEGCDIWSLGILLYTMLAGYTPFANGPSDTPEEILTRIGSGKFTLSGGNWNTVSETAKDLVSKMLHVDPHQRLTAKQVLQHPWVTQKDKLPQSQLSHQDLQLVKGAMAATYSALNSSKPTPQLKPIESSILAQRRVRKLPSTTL

IRR = molecular target: T7, IRR (Homo sapiens, UniProt P14616); test: Kinase panel, CaNDY 1 µM; type: biochemical; conditions: CaNDY 1 µM relative to DMSO
T7 construct: purchased Carna Biosciences
T7 sequence (P14616 27-1297): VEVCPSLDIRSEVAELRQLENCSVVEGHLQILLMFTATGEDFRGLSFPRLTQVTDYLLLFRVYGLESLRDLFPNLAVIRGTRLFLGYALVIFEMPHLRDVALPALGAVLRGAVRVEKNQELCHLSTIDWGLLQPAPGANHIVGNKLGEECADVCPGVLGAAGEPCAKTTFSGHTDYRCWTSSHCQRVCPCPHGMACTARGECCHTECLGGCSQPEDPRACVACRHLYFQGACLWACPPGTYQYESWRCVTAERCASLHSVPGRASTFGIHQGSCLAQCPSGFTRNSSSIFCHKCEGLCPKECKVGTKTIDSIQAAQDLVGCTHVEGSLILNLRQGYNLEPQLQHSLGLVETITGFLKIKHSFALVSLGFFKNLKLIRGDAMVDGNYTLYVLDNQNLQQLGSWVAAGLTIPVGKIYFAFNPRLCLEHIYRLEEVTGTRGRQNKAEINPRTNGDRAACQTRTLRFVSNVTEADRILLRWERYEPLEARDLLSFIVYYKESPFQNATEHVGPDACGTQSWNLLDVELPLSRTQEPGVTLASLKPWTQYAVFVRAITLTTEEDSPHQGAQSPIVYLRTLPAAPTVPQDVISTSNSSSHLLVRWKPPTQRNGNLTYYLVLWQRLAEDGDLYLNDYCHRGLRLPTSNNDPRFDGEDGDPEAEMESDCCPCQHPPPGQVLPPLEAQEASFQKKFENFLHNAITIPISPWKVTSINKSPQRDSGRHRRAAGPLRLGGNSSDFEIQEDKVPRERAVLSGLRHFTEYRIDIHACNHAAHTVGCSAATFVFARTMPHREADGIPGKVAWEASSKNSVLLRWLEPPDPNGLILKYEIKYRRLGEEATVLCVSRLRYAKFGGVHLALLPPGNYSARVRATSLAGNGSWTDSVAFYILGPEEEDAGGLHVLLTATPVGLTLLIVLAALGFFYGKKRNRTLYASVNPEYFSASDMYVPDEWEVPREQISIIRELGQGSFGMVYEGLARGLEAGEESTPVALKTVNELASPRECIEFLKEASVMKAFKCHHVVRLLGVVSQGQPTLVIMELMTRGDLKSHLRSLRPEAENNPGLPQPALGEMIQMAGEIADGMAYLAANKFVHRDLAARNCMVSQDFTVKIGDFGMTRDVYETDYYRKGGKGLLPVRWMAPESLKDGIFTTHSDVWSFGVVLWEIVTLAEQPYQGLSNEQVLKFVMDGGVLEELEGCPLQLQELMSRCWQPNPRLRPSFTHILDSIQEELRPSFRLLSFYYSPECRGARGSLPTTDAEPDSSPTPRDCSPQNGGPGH

MNK2 = molecular target: T8, MNK2 (Homo sapiens, UniProt Q9HBH9); test: Kinase panel, CaNDY 1 µM; type: biochemical; conditions: CaNDY 1 µM relative to DMSO
T8 construct: purchased Carna Biosciences

INSR = molecular target: T9, INSR (Homo sapiens, UniProt P06213); test: Kinase panel, CaNDY 1 µM; type: biochemical; conditions: CaNDY 1 µM relative to DMSO
T9 construct: purchased Carna Biosciences

SYK = molecular target: T10, SYK (Homo sapiens, UniProt P43405); test: Kinase panel, CaNDY 1 µM; type: biochemical; conditions: CaNDY 1 µM relative to DMSO
T10 construct: purchased Carna Biosciences

CaMK2γ = molecular target: T11, CaMK2γ (Homo sapiens, UniProt Q13555); test: Kinase panel, CaNDY 1 µM; type: biochemical; conditions: CaNDY 1 µM relative to DMSO
T11 construct: purchased Carna Biosciences

MLK2_Cascade = molecular target: T12, MLK2_Cascade (Homo sapiens, UniProt Q02779); test: Kinase panel, CaNDY 1 µM; type: biochemical; conditions: CaNDY 1 µM relative to DMSO
T12 construct: purchased Carna Biosciences
T12 sequence (Q02779 whole entry): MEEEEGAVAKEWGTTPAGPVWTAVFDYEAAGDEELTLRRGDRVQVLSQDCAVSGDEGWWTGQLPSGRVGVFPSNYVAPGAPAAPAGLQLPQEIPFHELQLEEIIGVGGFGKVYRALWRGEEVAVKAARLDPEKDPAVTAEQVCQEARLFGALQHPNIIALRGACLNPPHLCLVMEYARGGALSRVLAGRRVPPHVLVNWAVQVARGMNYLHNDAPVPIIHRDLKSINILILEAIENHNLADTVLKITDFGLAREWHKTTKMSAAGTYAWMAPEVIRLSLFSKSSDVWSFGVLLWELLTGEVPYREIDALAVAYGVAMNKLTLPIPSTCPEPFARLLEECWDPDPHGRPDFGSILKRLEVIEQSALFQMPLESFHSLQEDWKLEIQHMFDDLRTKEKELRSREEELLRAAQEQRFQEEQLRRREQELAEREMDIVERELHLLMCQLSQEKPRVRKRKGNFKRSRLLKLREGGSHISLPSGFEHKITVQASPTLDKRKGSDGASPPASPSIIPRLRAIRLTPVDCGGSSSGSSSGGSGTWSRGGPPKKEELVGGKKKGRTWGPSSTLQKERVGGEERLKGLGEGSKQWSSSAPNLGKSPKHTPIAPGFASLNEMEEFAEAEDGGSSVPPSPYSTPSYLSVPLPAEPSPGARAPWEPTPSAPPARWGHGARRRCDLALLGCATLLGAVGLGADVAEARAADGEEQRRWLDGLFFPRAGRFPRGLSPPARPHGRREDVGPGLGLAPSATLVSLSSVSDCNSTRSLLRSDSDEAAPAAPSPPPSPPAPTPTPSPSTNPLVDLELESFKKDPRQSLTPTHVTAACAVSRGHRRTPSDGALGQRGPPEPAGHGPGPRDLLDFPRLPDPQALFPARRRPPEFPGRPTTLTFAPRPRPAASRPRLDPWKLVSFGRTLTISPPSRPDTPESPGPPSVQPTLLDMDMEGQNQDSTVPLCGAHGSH

MAP2K5_Cascade = molecular target: T13, MAP2K5_Cascade (Homo sapiens, UniProt Q13163); test: Kinase panel, CaNDY 1 µM; type: biochemical; conditions: CaNDY 1 µM relative to DMSO
T13 construct: purchased Carna Biosciences
T13 sequence (Q13163 whole entry): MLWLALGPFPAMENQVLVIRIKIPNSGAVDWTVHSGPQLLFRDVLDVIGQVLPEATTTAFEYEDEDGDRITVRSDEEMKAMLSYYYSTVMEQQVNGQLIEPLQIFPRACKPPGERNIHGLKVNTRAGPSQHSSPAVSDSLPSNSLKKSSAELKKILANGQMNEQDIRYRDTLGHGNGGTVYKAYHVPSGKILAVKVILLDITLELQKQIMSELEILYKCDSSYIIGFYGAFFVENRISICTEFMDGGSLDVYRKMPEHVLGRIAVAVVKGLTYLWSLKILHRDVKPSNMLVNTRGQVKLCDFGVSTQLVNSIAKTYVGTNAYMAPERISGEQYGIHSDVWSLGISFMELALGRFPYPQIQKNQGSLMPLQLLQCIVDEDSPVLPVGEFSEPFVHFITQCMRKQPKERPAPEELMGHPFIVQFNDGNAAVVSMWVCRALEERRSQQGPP

CK2α = molecular target: T14, CK2α (Homo sapiens, UniProt P68400); test: Western blot of kinase expression in HEK293 cells; type: cell-based; conditions: CaNDY 2 μM, 4 days
T14 construct: endogenous in cells; host or cells: HEK293
Protocol: To check selectivity of CaNDY for other kinases, we first examined protein expression of several kinases in HEK293 cells treated with CaNDY (2 μM) for 4 days. […] Third, protein expression of these kinases targeted by CaNDY (DYRK1A, DYRK1B, CLK1, and Haspin) was reassessed by Western blot analysis as performed in Fig. 7b.
Western blot analysis was performed using the antibodies described above. In brief, total cell lysates were separated by SDS-PAGE (5–20% gels; ATTO, Tokyo, Japan) under reducing conditions and then transferred to a PVDF membrane (PALL, SP, Brazil). Antibody reactions were performed with Can Get Signal® Immunoreaction Enhancer Solution (Toyobo). Peroxidase activities on the membrane were visualized with ECL Western Blotting Detection Reagents (GE Healthcare) or ImmunoStar® LD (Wako Pure Chemical Industries, Osaka, Japan), and a ChemiDoc^TM MP Imaging System (Bio-Rad, Hercules, CA, USA).

RSK4 = molecular target: T15, RSK4 (Homo sapiens, UniProt Q9UK32); test: Kinase panel, CaNDY 1 µM; type: biochemical; conditions: CaNDY 1 µM relative to DMSO
T15 construct: purchased Carna Biosciences
T15 sequence (Q9UK32 whole entry): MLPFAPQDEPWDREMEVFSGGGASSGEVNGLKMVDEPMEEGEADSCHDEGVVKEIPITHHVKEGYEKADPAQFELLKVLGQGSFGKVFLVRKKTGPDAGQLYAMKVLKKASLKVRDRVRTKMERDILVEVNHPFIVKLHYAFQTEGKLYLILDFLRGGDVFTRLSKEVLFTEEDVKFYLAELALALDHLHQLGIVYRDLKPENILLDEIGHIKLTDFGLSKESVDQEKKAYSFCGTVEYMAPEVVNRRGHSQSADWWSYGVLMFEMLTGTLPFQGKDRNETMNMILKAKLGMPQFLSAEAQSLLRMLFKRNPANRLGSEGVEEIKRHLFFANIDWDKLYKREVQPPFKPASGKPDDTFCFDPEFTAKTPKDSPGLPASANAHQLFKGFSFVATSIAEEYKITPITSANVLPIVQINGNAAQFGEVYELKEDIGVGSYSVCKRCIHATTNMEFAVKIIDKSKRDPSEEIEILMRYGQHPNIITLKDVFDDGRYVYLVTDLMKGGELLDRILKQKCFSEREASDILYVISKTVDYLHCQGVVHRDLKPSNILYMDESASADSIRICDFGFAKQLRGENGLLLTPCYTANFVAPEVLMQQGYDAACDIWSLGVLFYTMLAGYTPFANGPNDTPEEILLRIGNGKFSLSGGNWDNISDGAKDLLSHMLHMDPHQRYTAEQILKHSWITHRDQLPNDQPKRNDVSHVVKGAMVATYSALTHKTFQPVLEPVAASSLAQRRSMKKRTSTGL

PDHK2 = molecular target: T16, PDHK2 (Homo sapiens, UniProt Q15119); test: Kinase panel, CaNDY 1 µM; type: biochemical; conditions: CaNDY 1 µM relative to DMSO
T16 construct: purchased Carna Biosciences

MAP2K2_Cascade = molecular target: T17, MAP2K2_Cascade (Homo sapiens, UniProt P36507); test: Kinase panel, CaNDY 1 µM; type: biochemical; conditions: CaNDY 1 µM relative to DMSO
T17 construct: purchased Carna Biosciences

MST1 = molecular target: T18, MST1 (Homo sapiens, UniProt Q13043); test: Kinase panel, CaNDY 1 µM; type: biochemical; conditions: CaNDY 1 µM relative to DMSO
T18 construct: purchased Carna Biosciences

LYNb = molecular target: T19, LYNb (Homo sapiens, UniProt P07948); test: Kinase panel, CaNDY 1 µM; type: biochemical; conditions: CaNDY 1 µM relative to DMSO
T19 construct: purchased Carna Biosciences

PKCγ = molecular target: T20, PKCγ (Homo sapiens, UniProt P05129); test: Kinase panel, CaNDY 1 µM; type: biochemical; conditions: CaNDY 1 µM relative to DMSO
T20 construct: purchased Carna Biosciences

Which results are given for `[H]/N=C1/NC(=O)C(=Cc2ccc3c(c2)CCO3)S1` [CaNDY, (Z)-5-[(2,3-dihydrobenzofuran-5-yl)methylene]-2-iminothiazolidin-4-one]?
remaining activity at 1 µM (PDHK4): 92%; EC50 ([1]; 293T cells stably expressing CDC37-nanoKAZ, treated one hour, read-out: EC50, decrease of relative luminescence intensity): 409 nM; relative luminescence intensity in library screen ([1]; compounds at 4 μM, 253 compounds): decreased the luminescence intensity to the lowest level; remaining activity at 1 µM (TIE2): 101%; remaining activity at 1 µM (FER): 98.6%; remaining activity at 1 µM (MAP3K5_Cascade): 103%; remaining activity at 1 µM (RSK1): 91.2%; remaining activity at 1 µM (IRR): 103%; remaining activity at 1 µM (MNK2): 90.3%; remaining activity at 1 µM (INSR): 103%; %Activity (SYK): 93.7%; remaining activity at 1 µM (CaMK2γ): 101%; remaining activity at 1 µM (MLK2_Cascade): 124%; remaining activity at 1 µM (MAP2K5_Cascade): 101%; protein expression of CK2α (CK2α): did not decrease; %Activity (RSK4): 94.6%; remaining activity at 1 µM (PDHK2): 91.6%; remaining activity at 1 µM (MAP2K2_Cascade): 94.7%; %Activity (MST1): 101.2%; remaining activity at 1 µM (LYNb): 98%; remaining activity at 1 µM (PKCγ): 90.6%
